US9572349B2 (priority 2009, dated 2017)

System: D. citri
Format: in vivo, Diaphorina citri
Settings: four-arm olfactometer; for Percentage of individuals that chose each compound, final choice / Percentage of individuals that chose each compound, first choice: 10 μL pure compound in two arms versus clean air in two arms, 5 min observation; for Behavioural response of psyllids to pure compound (in words): 10 μL pure compound versus clean air

CC1=CC[C@H]2[C@H]3[C@@H]1[C@]2(C)CC[C@H]3C(C)C [α-copaene]
Percentage of individuals that chose each compound, final choice: 33.0%
Percentage of individuals that chose each compound, first choice: 42.0%
Behavioural response of psyllids to pure compound (in words): higher level of psyllids entering the unscented arm

C=C1CC/C=C(\C)CC[C@@H]2[C@@H]1CC2(C)C [β-caryophyllene]
Percentage of individuals that chose each compound, final choice: 32.0%
Percentage of individuals that chose each compound, first choice: 42.3%
Behavioural response of psyllids to pure compound (in words): higher level of psyllids entering the unscented arm
